Assay [1] addresses T1, Protein cereblon/Signal transducer and activator of transcription 3 (Homo sapiens, UniProt P40763+Q96SW2). Kind of assay: PROTAC activity at his-SUMO-tagged STAT3 (127 to 688 residues)/CRBN in human HeLa cells assessed as induction of STAT3 degradation incubated for 24 hrs by TECAN SPARK microplate reader analysis. The class given is cell-based.
Assay [2] concerns the target T1, Protein cereblon/Signal transducer and activator of transcription 3. Kind of assay: PROTAC activity at his-SUMO-tagged STAT3 (127 to 688 residues)/CRBN in human HeLa cells assessed as induction of STAT3 degradation incubated for 24 hrs by TECAN SPARK microplate reader analysis relative to control. The class given is cell-based.
For assay [3], the target named is T2, Protein cereblon/Signal transducer and activator of transcription 3 (Mus musculus) (UniProt P42227+Q8C7D2). Kind of assay: In-vivo PROTAC activity at STAT3/CRBN in female CB17 SCID mouse assessed as reduction STAT3 level liver at 10 mg/kg, iv measured at 24 hrs by Western blot analysis. In kind it is functional, organism-based. Also noted: scale not given: the % may be the effect or the level left. A general note: In western blotting, separated proteins are transferred to a membrane and probed.

Assay [4] deals with T2, Protein cereblon/Signal transducer and activator of transcription 3 (Mus musculus). Nature of the assay: In-vivo PROTAC activity at STAT3/CRBN in female CB17 SCID mouse assessed as reduction STAT3 level spleen at 10 mg/kg, iv measured at 24 hrs by Western blot analysis. In kind it is functional, organism-based. Also on record: scale not given: the % may be the effect or the level left.

For assay [5] the target is unchanged. Kind of assay: In-vivo PROTAC activity at STAT3/CRBN in female CB17 SCID mouse assessed as reduction STAT3 level liver at 10 mg/kg, iv measured at 48 hrs by Western blot analysis. The class given is functional, organism-based. Also on record: scale not given: the % may be the effect or the level left.
Assay [6] has the same target. Kind of assay: In-vivo PROTAC activity at STAT3/CRBN in female CB17 SCID mouse assessed as reduction STAT3 level spleen at 10 mg/kg, iv measured at 48 hrs by Western blot analysis. Also on record: scale not given: the % may be the effect or the level left. The class given is functional, organism-based.
Assay [7] shares this target. Kind of assay: In-vivo PROTAC activity at STAT3/CRBN in female CB17 SCID mouse assessed as reduction STAT3 level liver at 10 mg/kg, iv measured at 72 hrs by Western blot analysis. In kind it is functional, organism-based. Also on record: scale not given: the % may be the effect or the level left.
Assay [8] shares this target. Kind of assay: In-vivo PROTAC activity at STAT3/CRBN in female CB17 SCID mouse assessed as reduction STAT3 level spleen at 10 mg/kg, iv measured at 72 hrs by Western blot analysis. In kind it is functional, organism-based. Also on record: scale not given: the % may be the effect or the level left.
Assay [9] in a line: Antiproliferative activity against human MOLM16 cells assessed as cell growth inhibition incubated for 4 days by celltiter-glo assay. In kind it is functional, cell-based, MOLM-16. Particulars: MOLM16, 96 h. In general terms: In ATP-based viability assays light output follows the ATP content of the culture.
For the next assay, the system named is SU-DHL-1. Nature of the assay: Antiproliferative activity against human SU-DHL-1 cells assessed as cell growth inhibition incubated for 4 days by celltiter-glo assay. The class given is functional, cell-based. Particulars: SU-DHL-1, 96 h.
A short description of assay [10]: Antiproliferative activity against human SUPM2 cells assessed as cell growth inhibition incubated for 4 days by celltiter-glo assay. The following applies: SUP-M2, 96 h. In kind it is functional, cell-based.
Assay [11] concerns the target T1, Protein cereblon/Signal transducer and activator of transcription 3. Nature of the assay: PROTAC activity at his-SUMO-tagged STAT3 (127 to 688 residues)/CRBN in human HeLa cells assessed as induction of STAT3 degradation upto 5 uM incubated for 24 hrs by TECAN SPARK microplate reader analysis. The class given is cell-based.

Molecules are shown by their SMILES. Calls of active or inactive are those of the source. The calls are words filed in the database; no cut-off is given here.

On to `CN1CC[C@H]2CC[C@@H](C(=O)N[C@@H](CCC(N)=O)C(=O)N[C@@H](Cc3ccc(F)cc3)C(=O)N3CCC(CCC#Cc4cccc5c4CN(C4CCC(=O)NC4=O)C5=O)CC3)N2C(=O)[C@@H](NC(=O)c2cc3cc(C(F)(F)P(=O)(O)O)ccc3s2)C1` (stereo partly drawn), for which the DC50 in assay [1] worked out at 90 nM. In addition, the Emax in assay [2] is 94%. Moreover, the Activity was 70% in [3] and 50% in [4].

As for `CC(C)N1CC[C@H]2CC[C@@H](C(=O)N[C@@H](CCC(N)=O)C(=O)N[C@@H](Cc3ccc(F)c(F)c3)C(=O)N3CCC(CCC#Cc4cccc5c4CN(C4CCC(=O)NC4=O)C5=O)CC3)N2C(=O)[C@@H](NC(=O)c2cc3cc(C(F)(F)P(=O)(O)O)ccc3s2)C1` (stereo partly drawn), the DC50 in assay [1] came to 500 nM. In [2], the Emax came out at 83%. Further, the Activity in [3], in assay [4], in assay [5], in assay [6], in assay [7] and in [8] was over 90% each time. The IC50 in assay [9] stood at 93 nM; in the assay on SU-DHL-1, 1780 nM; in [10] it was 1550 nM.

With `CN1CC[C@H]2CC[C@@H](C(=O)N[C@@H](CCC(N)=O)C(=O)N[C@](C)(C(=O)N3CCC(CCC#Cc4cccc5c4CN(C4CCC(=O)NC4=O)C5=O)CC3)c3ccccc3)N2C(=O)[C@@H](NC(=O)c2cc3cc(C(F)(F)P(=O)(O)O)ccc3s2)C1` (stereo partly drawn), in assay [1], the DC50 was over 5000 nM. Further, the Emax in assay [2] was found to be 2%. For the same compound, the outcome in assay [11] was inactive.

Turning to `CN1CC[C@H]2CC[C@@H](C(=O)N[C@@H](CCC(N)=O)C(=O)N[C@@H](Cc3ccc(F)c(F)c3)C(=O)N3CCC(CCC#Cc4cccc5c4CN(C4CCC(=O)NC4=O)C5=O)CC3)N2C(=O)[C@@H](NC(=O)c2cc3cc(C(F)(F)P(=O)(O)O)ccc3s2)C1` (stereo partly drawn), in assay [1], the DC50 was 220 nM. In assay [2], the Emax turned out to be 90%. The values for the Activity in assay [3] and in assay [4] were 80% and 50%, respectively.

For the compound `NC(=O)CC[C@H](NC(=O)[C@@H]1CC[C@@H]2CCN(C(=O)CCCCCC#Cc3cccc4c3CN(C3CCC(=O)NC3=O)C4=O)C[C@H](NC(=O)c3cc4cc(C(=O)P(=O)(O)O)ccc4[nH]3)C(=O)N21)C(=O)NC(c1ccccc1)c1ccccc1` (stereo partly drawn), the DC50 in [1] worked out at 400 nM. Besides, the Emax in assay [2] turned out to be 88%. In addition, the IC50 in assay [9] was found to be 22 nM; with SU-DHL-1 it was 300 nM; in assay [10], 470 nM.

Consider `CN1CC[C@H]2CC[C@@H](C(=O)N[C@@H](CCC(N)=O)C(=O)NC3(C(=O)N4CCC(CCC#Cc5cccc6c5CN(C5CCC(=O)NC5=O)C6=O)CC4)CCCCC3)N2C(=O)[C@@H](NC(=O)c2cc3cc(C(F)(F)P(=O)(O)O)ccc3s2)C1` (stereo partly drawn), for which the DC50 in assay [1] is over 5000 nM. Also, the Emax in assay [2] was found to be 0%. In addition, in assay [11], the outcome was inactive.

As to `CCN1CC[C@H]2CC[C@@H](C(=O)N[C@@H](CCC(N)=O)C(=O)N[C@@H](Cc3ccc(F)c(F)c3)C(=O)N3CCC(CCC#Cc4cccc5c4CN(C4CCC(=O)NC4=O)C5=O)CC3)N2C(=O)[C@@H](NC(=O)c2cc3cc(C(F)(F)P(=O)(O)O)ccc3s2)C1` (stereo partly drawn), the DC50 in assay [1] was 200 nM. In addition, the Emax in assay [2] stood at 92%. In addition, the Activity in [3] and in assay [4] was 80% in each case. The IC50 came to 31 nM in assay [9], 540 nM in the assay on SU-DHL-1 and 540 nM in assay [10].

Take `NC(=O)CC[C@H](NC(=O)[C@@H]1CC[C@@H]2CCNC[C@H](NC(=O)c3cc4cc(C(F)(F)P(=O)(O)O)ccc4s3)C(=O)N21)C(=O)N[C@@H](Cc1ccc(F)c(F)c1)C(=O)N1CCC(CCC#Cc2cccc3c2CN(C2CCC(=O)NC2=O)C3=O)CC1` (stereo partly drawn): in assay [1], the DC50 was 1200 nM. The Emax in assay [2] amounted to 73%. Besides, the result in assay [3] and in assay [4] was Active.

Take `CN1CC[C@H]2CC[C@@H](C(=O)N[C@@H](CCC(N)=O)C(=O)N[C@H](C(=O)NCCCC#Cc3cccc4c3CN(C3CCC(=O)NC3=O)C4=O)c3ccccc3)N2C(=O)[C@@H](NC(=O)c2cc3cc(C(F)(F)P(=O)(O)O)ccc3s2)C1` (stereo partly drawn): the DC50 in [1] is over 5000 nM. Further, the Emax in assay [2] is 16%.

Usually DC50 stands for the midpoint of the concentration-degradation curve. The term Emax denotes the greatest response seen or fitted, relative to the assay's reference. As usually defined, the IC50 is the midpoint of a concentration-inhibition curve.

The values above are taken from ChEMBL document CHEMBL6092220 (J Med Chem, 2024).
